Results published in PubChem BioAssay (NCI).
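Following 48 hours of exposure in 96-well plates, responses at five concentrations were used to interpolate endpoints linearly. Abbreviation: GI50, concentration required for 50% inhibition of growth. At the TGI there is no net growth.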

Tests used:
Experiment in all cases: NCI tumour cell line growth inhibition, 48 h
[1] = tested on: M14 melanoma
[2] = tested on: NCI-H23 lung
[3] = tested on: U251 CNS
[4] = tested on: EKVX NSCLC
[5] = tested on: MCF7 breast
[6] = tested on: SF-539 CNS
[7] = tested on: PC-3 prostate
[8] = tested on: DU-145 prostate
[9] = tested on: MALME-3M melanoma
[10] = tested on: CAKI-1 renal
[11] = tested on: SW-620 colon
[12] = tested on: HS 578T breast
[13] = tested on: MDA-MB-435
[14] = tested on: IGROV1 ovarian
[15] = tested on: SK-OV-3 ovarian
[16] = tested on: SN12C renal
[17] = tested on: SK-MEL-2 melanoma
[18] = tested on: HOP-62 NSCLC
[19] = tested on: K-562 leukemia
[20] = tested on: HOP-92 NSCLC
[21] = tested on: NCI-H460 lung
[22] = tested on: RPMI-8226 leukemia
[23] = tested on: OVCAR-5 ovarian
[24] = tested on: TK-10 renal
[25] = tested on: MOLT-4 leukemia
[26] = tested on: OVCAR-3 ovarian
[27] = tested on: RXF 393 renal
[28] = tested on: CCRF-CEM leukemia
[29] = tested on: MDA-MB-231 breast
[30] = tested on: OVCAR-8 ovarian
[31] = tested on: COLO 205 colon
[32] = tested on: A549 NSCLC
[33] = tested on: BT-549 breast
[34] = tested on: SR leukemia
[35] = tested on: NCI-H226 lung
[36] = tested on: NCI/ADR-RES ovarian
[37] = tested on: SF-268 CNS
[38] = tested on: UACC-62 melanoma
[39] = tested on: KM12 colon
[40] = tested on: HT29 colon
[41] = tested on: UACC-257 melanoma
[42] = tested on: UO-31 renal
[43] = tested on: HCT-116 colon
[44] = tested on: OVCAR-4 ovarian
[45] = tested on: HCT-15 colon
[46] = tested on: SK-MEL-28 melanoma
[47] = tested on: ACHN renal
[48] = tested on: SF-295 CNS
[49] = tested on: SNB-19 CNS
[50] = tested on: HL-60(TB) leukemia
[51] = tested on: A498 renal
[52] = tested on: NCI-H522 lung
[53] = tested on: SNB-75 CNS
[54] = tested on: 786-0 renal
[55] = tested on: LOX IMVI melanoma
[56] = tested on: T-47D breast
[57] = tested on: HCC-2998 colon
[58] = tested on: SK-MEL-5 melanoma

For `C[C@@H]1COCCN1c1cc(C2(O)C[C@H]3CC[C@@H](C2)O3)c2cnn(-c3ccn[nH]3)c2n1` (some centres undefined), the GI50 [1] was 38.3 nM, the TGI [1] was 785 nM and the GI50 [2] was 28.6 nM. For the same compound, the TGI [2] was 188 nM, the GI50 [3] was 137 nM and the TGI [3] was 8620 nM. For the same compound, the GI50 [4] was 139 nM, the TGI [4] was 845 nM and the GI50 [5] was less than 10.6 nM. For the same compound, the TGI [5] was 1380 nM, the GI50 [6] was 23 nM and the TGI [6] was 94.6 nM. For the same compound, the GI50 [7] was 277 nM, the TGI [7] was 24400 nM and the GI50 [8] was 55.3 nM. For the same compound, the TGI [8] was 2460 nM, the GI50 [9] was 65.6 nM and the TGI [9] was 462 nM. For the same compound, the GI50 [10] was 68.5 nM, the TGI [10] was 627 nM and the GI50 [11] was 187 nM. For the same compound, the TGI [11] was greater than 37700 nM, the GI50 [12] was 47.9 nM and the TGI [12] was 556 nM. It also gave a GI50 [13] of 68.5 nM, a TGI [13] of 692 nM and a GI50 [14] of 45.3 nM. It also gave a TGI [14] of 977 nM, a GI50 [15] of 99.2 nM and a TGI [15] of 4030 nM. For the same compound, the GI50 [16] was 143 nM, the TGI [16] was 4090 nM and the GI50 [17] was 30.4 nM. For the same compound, the TGI [17] was 202 nM, the GI50 [18] was 78.6 nM and the TGI [18] was 1410 nM. The GI50 [19] was 63 nM, the TGI [19] was greater than 100000 nM and the GI50 [20] was 114 nM. It also gave a TGI [20] of 879 nM, a GI50 [21] of 33.4 nM and a TGI [21] of 1430 nM. It also gave a GI50 [22] of 162 nM, a TGI [22] of 3720 nM and a GI50 [23] of 97.7 nM. For the same compound, the GI50 [24] was 51.5 nM, the TGI [24] was 1010 nM and the GI50 [25] was 43.7 nM. The TGI [25] was greater than 67300 nM, the GI50 [26] was 87.4 nM and the TGI [26] was 862 nM. For the same compound, the GI50 [27] was less than 16.1 nM, the TGI [27] was 58.1 nM and the GI50 [28] was 38.2 nM. The TGI [28] was greater than 100000 nM, the GI50 [29] was 138 nM and the TGI [29] was 5680 nM. The GI50 [30] was 145 nM, the TGI [30] was 1560 nM and the GI50 [31] was 253 nM. It also gave a TGI [31] of 2520 nM, a GI50 [32] of 65.1 nM and a TGI [32] of 1130 nM. It also gave a GI50 [33] of 49 nM, a TGI [33] of 784 nM and a GI50 [34] of 11.2 nM. For the same compound, the TGI [34] was 26900 nM, the GI50 [35] was 44.8 nM and the TGI [35] was 528 nM. It also gave a GI50 [36] of 154 nM, a TGI [36] of 1100 nM and a GI50 [37] of 111 nM. For the same compound, the TGI [37] was 2040 nM, the GI50 [38] was 50 nM and the TGI [38] was 384 nM. For the same compound, the GI50 [39] was 167 nM, the TGI [39] was 9730 nM and the GI50 [40] was 181 nM. For the same compound, the TGI [40] was greater than 100000 nM, the GI50 [41] was 168 nM and the TGI [41] was 1420 nM. It also gave a GI50 [42] of 42.7 nM, a TGI [42] of 554 nM and a GI50 [43] of 118 nM. The TGI [43] was greater than 100000 nM, the GI50 [44] was 39.7 nM and the TGI [44] was 419 nM. The GI50 [45] was 39.4 nM, the TGI [45] was greater than 42200 nM and the GI50 [46] was 251 nM. The TGI [46] was 2100 nM, the GI50 [47] was 31.6 nM and the TGI [47] was 353 nM. It also gave a GI50 [48] of 32.9 nM, a TGI [48] of 308 nM and a GI50 [49] of 166 nM. The TGI [49] was 1740 nM, the GI50 [50] was 172 nM and the GI50 [51] was 22.1 nM. For the same compound, the TGI [51] was 130 nM, the GI50 [52] was 141 nM and the TGI [52] was 1010 nM. The GI50 [53] was 43 nM, the TGI [53] was 411 nM and the GI50 [54] was 47.9 nM. For the same compound, the TGI [54] was greater than 100000 nM, the GI50 [55] was 24.6 nM and the TGI [55] was 145 nM. It also gave a GI50 [56] of 122 nM, a TGI [56] of 734 nM and a GI50 [57] of less than 11.3 nM. It also gave a TGI [57] of 229 nM, a GI50 [58] of 107 nM and a TGI [58] of 279 nM.
